Measurements taken from US8937072B2, “Substituted cyanoaniline compounds, preparation and use thereof” (Sinochem Corporation, priority 2011, dated 2015).
Like-named read-outs stand apart in the source and are kept apart here.

Key:
rice blast = assay: microbe, parasite or virus in culture; format: cell-based; settings: for the inhibition rate against rice blast (%) 0.03 mg/L: Table 21, 0.03 mg/L; for the inhibition rate against rice blast (%) 0.1 mg/L: Table 21, 0.1 mg/L; for the inhibition rate against rice blast (%) 0.3 mg/L: Table 21, 0.3 mg/L; for inhibition at 25 µg/mL / inhibition at 0.03 µg/mL / inhibition at 0.1 µg/mL / inhibition at 0.3 µg/mL / inhibition at 0.9 µg/mL: Pyricularia oryzae; for inhibition at 0.03 µg/mL: read-out: the inhibition rate against rice blast (%) 0.03 mg/L; for inhibition at 0.1 µg/mL: read-out: the inhibition rate against rice blast (%) 0.1 mg/L
cucumber gray mold = assay: Activity in vitro (96-well, High Through Put): inhibition rate against cucumber gray mold; format: cell-based; settings: for inhibition at 25 µg/mL: dose 25 mg/L; for inhibition rate against cucumber gray mold: dose 8.3 mg/L
How it was run: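 Compound in acetone, methanol or DMF was combined with pathogen suspension under sterile conditions and held in a constant-temperature box. After 24 hours germination or growth was scored by eye against an untreated control to give the inhibition rate.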

cucumber downy mildew = assay: Protectant activity in vivo (whole plant) against cucumber downy mildew
How it was run: (§1)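 Compound stock in organic solvent (≤5% v/v) diluted in water with 0.1% Tween-80 and sprayed onto whole host plants. Fungal inoculation 24 h later; humidity chamber then greenhouse as the pathogen requires. Activity rated visually, usually after 7 days.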

corn rust = assay: Protectant activity in vivo (whole plant) against corn rust; settings: for pest or weed control at 6.25 µg/mL / pest or weed control at 25 µg/mL / pest or weed control at 100 µg/mL / pest or weed control at 400 µg/mL: Zea mays, 168 h
How it was run: as §1

[1] = read-out: inhibition rate against rice blast
[2] = read-out: the inhibition rate against rice blast (%) 0.3 mg/L
[3] = 0.9 mg/L, read-out: the inhibition rate against cucumber gray mold (%)
[4] = 2.8 mg/L, read-out: the inhibition rate against cucumber gray mold (%)
[5] = 8.3 mg/L, read-out: the inhibition rate against cucumber gray mold (%)
[6] = Cucumis sativus, 168 h, 12.5 mg/L
[7] = Cucumis sativus, 168 h, 25 mg/L, read-out: the protectant activity (%) against cucumber downy mildew
[8] = Cucumis sativus, 168 h, 50 mg/L, read-out: the protectant activity (%) against cucumber downy mildew
[9] = Cucumis sativus, 168 h, 100 mg/L, read-out: the protectant activity (%) against cucumber downy mildew
[10] = 400 mg/L, read-out: the protectant activity (%) against corn rust
[11] = dose 400 mg/L, read-out: protectant activity against corn rust in vivo
[12] = in vitro, dose 2.8 mg/L, read-out: inhibition rate against cucumber gray mold
[13] = Cucumis sativus, 168 h, dose 25 mg/L, read-out: protectant activity against cucumber downy mildew in vivo
[14] = Cucumis sativus, 168 h, dose 50 mg/L, read-out: protectant activity against cucumber downy mildew in vivo

SMILES | the inhibition rate against rice blast (%) 0.03 mg/L (rice blast) | the inhibition rate against rice blast (%) 0.1 mg/L (rice blast) | the inhibition rate against rice blast (%) 0.3 mg/L (rice blast) | the inhibition rate against cucumber gray mold (%) (cucumber gray mold; 0.3 mg/L) | the inhibition rate against cucumber gray mold (%) (cucumber gray mold; 0.9 mg/L) | the inhibition rate against cucumber gray mold (%) (cucumber gray mold; 2.8 mg/L) | the inhibition rate against cucumber gray mold (%) (cucumber gray mold; 8.3 mg/L) | protectant activity against cucumber downy mildew in vivo (cucumber downy mildew; dose 50 mg/L) | protectant activity against cucumber downy mildew in vivo (cucumber downy mildew; dose 100 mg/L) | protectant activity against cucumber downy mildew in vivo (cucumber downy mildew; dose 400 mg/L) | inhibition at 0.03 µg/mL (rice blast) | inhibition at 0.1 µg/mL (rice blast) | inhibition at 0.3 µg/mL (rice blast; [2]) | inhibition at 0.3 µg/mL (cucumber gray mold; 0.3 mg/L) | inhibition at 0.9 µg/mL (cucumber gray mold; [3]) | inhibition at 2.8 µg/mL (cucumber gray mold; [4]) | inhibition at 8.3 µg/mL (cucumber gray mold; [5]) | pest or weed control at 12.5 µg/mL (cucumber downy mildew; [6]) | pest or weed control at 25 µg/mL (cucumber downy mildew; [7]) | pest or weed control at 50 µg/mL (cucumber downy mildew; [8]) | other results
N#Cc1c(Cl)c(Cl)c(Nc2c(F)cc([N+](=O)[O-])cc2Cl)c(C#N)c1Cl [Compound B-53] | 100% | 100% | 100% | 0% | 100% | 100% | 100% | 98% | 100% | 100% |  |  |  |  |  |  |  |  |  |  | the protectant activity (%) against corn rust (corn rust; 6.25 mg/L): 30%; the protectant activity (%) against corn rust (corn rust; 25 mg/L): 50%; the protectant activity (%) against corn rust (corn rust; 100 mg/L): 80%; the protectant activity (%) against corn rust (corn rust; 400 mg/L): 100%
CN(C)c1ccc(Nc2c(Cl)c(F)c(C#N)c(F)c2C#N)cc1 [KC25] |  |  |  |  |  |  |  |  |  |  | 0% | 0% | 0% | 0% | 0% | 0% | 0% | 0% | 0% | 0% | inhibition at 25 µg/mL (rice blast; [1]): 0%; inhibition at 25 µg/mL (cucumber gray mold; in vitro): 0%; pest or weed control at 100 µg/mL (cucumber downy mildew; [9]): 0%; pest or weed control at 400 µg/mL (cucumber downy mildew; Cucumis sativus, 168 h, dose 400 mg/L): 0%; pest or weed control at 6.25 µg/mL (corn rust; 6.25 mg/L): 0%; pest or weed control at 25 µg/mL (corn rust; 25 mg/L): 0%; pest or weed control at 100 µg/mL (corn rust; 100 mg/L): 0%; pest or weed control at 400 µg/mL (corn rust; [10]): 0%; pest or weed control at 400 µg/mL (corn rust; [11]): 0%
N#Cc1c(F)c(F)c(Nc2ccc([N+](=O)[O-])cc2)c(C#N)c1F [KC11] |  |  |  |  |  |  |  |  |  |  | 0% | 0% | 0% | 0% | 0% | 0% | 50% | 0% | 0% | 0% | inhibition at 0.9 µg/mL (rice blast; [1]): 0%; inhibition at 2.8 µg/mL (cucumber gray mold; [12]): 0%; pest or weed control at 100 µg/mL (cucumber downy mildew; [9]): 0%; pest or weed control at 25 µg/mL (cucumber downy mildew; [13]): 0%; pest or weed control at 50 µg/mL (cucumber downy mildew; [14]): 0%
N#Cc1c(Cl)c(Cl)c(Nc2ccc([N+](=O)[O-])cc2Cl)c(C#N)c1Cl [Compound B-35] | 50% | 80% | 100% | 100% | 100% | 100% | 100% | 98% | 100% | 100% |  |  |  |  |  |  |  |  |  |  | the protectant activity (%) against cucumber downy mildew (cucumber downy mildew; 12.5 mg/L): 98%; the protectant activity (%) against cucumber downy mildew (cucumber downy mildew; 25 mg/L): 98%; the protectant activity (%) against cucumber downy mildew (cucumber downy mildew; 50 mg/L): 98%; the protectant activity (%) against cucumber downy mildew (cucumber downy mildew; 100 mg/L): 100%; protectant activity against cucumber downy mildew in vivo (cucumber downy mildew; dose 12.5 mg/L): 98%
N#Cc1c(Cl)c(Cl)c(Nc2c(F)cc([N+](=O)[O-])cc2F)c(Cl)c1C#N [Compound A-43] | 100% | 100% | 100% | 100% | 100% | 100% | 100% |  |  |  |  |  |  |  |  |  |  |  |  |  | protectant activity against corn rust in vivo (corn rust; dose 400 mg/L): 100%
N#Cc1c(Cl)c(Cl)c(Nc2c(Cl)cncc2Cl)c(Cl)c1C#N [Compound A-87] | 100% | 100% | 100% |  |  |  |  |  |  |  |  |  |  |  |  |  |  |  |  |  | inhibition rate against cucumber gray mold (cucumber gray mold; in vitro): 80%; the protectant activity (%) against corn rust (corn rust; 6.25 mg/L): 50%; the protectant activity (%) against corn rust (corn rust; 25 mg/L): 80%; the protectant activity (%) against corn rust (corn rust; 100 mg/L): 100%; the protectant activity (%) against corn rust (corn rust; 400 mg/L): 100%; protectant activity against corn rust in vivo (corn rust; dose 100 mg/L): 100%
N#Cc1c(Cl)c(Cl)c(C#N)c(Nc2c(F)cc([N+](=O)[O-])cc2Cl)c1Cl [Compound C-46] | 100% | 100% | 100% | 100% | 100% | 100% | 100% |  |  |  |  |  |  |  |  |  |  |  |  |  | protectant activity against corn rust in vivo (corn rust; dose 400 mg/L): 80%
N#Cc1c(Cl)c(Cl)c(Nc2cc(C(F)(F)F)ccc2Cl)c(C#N)c1Cl [Compound B-29] | 0% | 50% | 100% |  | 50% | 80% | 80% | 100% | 100% | 100% |  |  |  |  |  |  |  |  |  |  | inhibition rate against cucumber gray mold (cucumber gray mold; in vitro): 80%; the protectant activity (%) against cucumber downy mildew (cucumber downy mildew; 12.5 mg/L): 30%; the protectant activity (%) against cucumber downy mildew (cucumber downy mildew; 25 mg/L): 100%; the protectant activity (%) against cucumber downy mildew (cucumber downy mildew; 50 mg/L): 100%; the protectant activity (%) against cucumber downy mildew (cucumber downy mildew; 100 mg/L): 100%; protectant activity against cucumber downy mildew in vivo (cucumber downy mildew; dose 25 mg/L): 100%
COc1ccc(Nc2c(F)c(F)c(C#N)c(F)c2C#N)cc1 [KC10] |  |  |  |  |  |  |  |  |  |  | 0% | 0% | 0% | 0% | 0% | 0% | 80% | 0% | 0% | 10% | inhibition at 0.3 µg/mL (rice blast; [1]): 0%; inhibition at 0.9 µg/mL (rice blast; [1]): 50%; inhibition at 2.8 µg/mL (cucumber gray mold; [12]): 0%; pest or weed control at 100 µg/mL (cucumber downy mildew; [9]): 20%; pest or weed control at 25 µg/mL (cucumber downy mildew; [13]): 0%; pest or weed control at 50 µg/mL (cucumber downy mildew; [14]): 10%
CCOc1ccccc1Nc1c(F)c(F)c(C#N)c(C#N)c1F [KC26] |  |  |  |  |  |  |  |  |  |  | 0% | 0% | 0% | 0% | 0% | 0% | 0% |  |  |  | inhibition at 25 µg/mL (rice blast; [1]): 0%; inhibition at 25 µg/mL (cucumber gray mold; in vitro): 0%; pest or weed control at 6.25 µg/mL (corn rust; 6.25 mg/L): 0%; pest or weed control at 25 µg/mL (corn rust; 25 mg/L): 0%; pest or weed control at 100 µg/mL (corn rust; 100 mg/L): 0%; pest or weed control at 400 µg/mL (corn rust; [10]): 0%; pest or weed control at 400 µg/mL (corn rust; [11]): 0%
